Like-named read-outs stand apart in the source and are kept apart here.
Experiments:
A2058 cells [1] = assay: Colony formation (soft agar); format: cell-based, human
Method: Colony formation: Compound 1 was evaluated at three concentrations for inhibition of colony formation in both the A2058 and OVCAR3 cell lines. Colony number was determined in triplicate and compared to the vehicle control run on each 24 well plate to provide a percent. Colonies greater than 60 cells were counted at 100× under phase contrast. […] In a second study, selected compounds were evaluated for their effect on density-independent growth of the A2058 cell line in soft agar. Percent inhibition was determined over triplicate experiments involving three log molar concentrations of the test compound.

CHOm5 cells [2] = assay: Carbachol-stimulated arachidonic acid release; format: cell-based, Chinese hamster
Excerpt: This example illustrates the effect of selected compounds on the release of arachidonic acid from carbachol-stimulated CHOm5 cells. Carbachol is a muscarinic agonist which in the muscarinic receptor transfected CHO cells stimulates the activation of phospholipase A2, resulting in arachidonic acid release and metabolism. Downstream metabolites of arachidonic acid, prostaglandins and leukotrienes are also second messengers.
The effect of compound 1 on arachidonic acid release from CHOm5 cells was determined by incubating the cells to isotopic equilibrium with labelled arachidonic acid, then washing the cells twice with 1 mL of serum-free media supplemented with 20 mM HEPES and 0.2% bovine serum albumin (fatty acid free) to trap the unincorporated labelled arachidonic acid, and then simultaneously adding carbachol (100 μM) and increasing concentrations of 1. After 15 min, the reaction was stopped by removing the incubation media which was then centrifuged at 10,000×g to eliminate any nonadherent cells.

CHOm5 cells [3] = assay: Calcium ionophore A23187-stimulated 45Ca2+ influx; format: cell-based, Chinese hamster; conditions: Cricetulus griseus; FIG. 13, A23187
Method: (§1) Calcium influx was determined using two methods. The first method involved the use of ^45 Ca^2+, while the second method utilized a fluorescent intracellular calcium chelator, Fura-2. The method using Fura-2 is semi-quantitative and is preferred for kinetic analysis and screening whereas the ^45 Ca^2+ method is quantitative.
(§2) CHOm5 cells in monolayer culture were washed free of serum-containing media and incubated with either carbachol or the calcium ionophore A23187 (from Molecular Probes, Eugene, Oreg., USA) in the presence of ^45 Ca^2+ and defined buffer (E2 medium with 0.1 mM MgCl2 and 1.0 mM CaCl2). After incubation for 5 min, the radioactive buffer was rapidly and repeatedly washed off with media containing LaCl3, a competitor of calcium efflux. The cell monolayer was solubilized and the calcium uptake was determined by scintillation counting.

A2058 cells [4] = assay: Type IV collagen-stimulated motility; format: cell-based, human; conditions: data not shown
A2058 melanoma cells = assay: Reversibility of inhibition of tumor cell motility; format: cell-based, human; conditions: for activity at 1 µg/mL / activity at 5 µg/mL: Homo sapiens, read-out: Motility (% of control)
Method: The cell motility assay has been described. See, Stracke et al., Biochem. Biophys. Res. Comm., 146:339-345 (1987). Cells from the A2058 human melanoma line which was maintained in subconfluent culture were harvested with trypsin-EDTA, and were allowed to recover for 1 hr at room temperature. Cells from the 5R H-ras transformed (diploid) rat embryo fibroblast line were harvested with 2 mM EDTA in PBS without divalent cations. Cells were resuspended in serum-free media containing 0.1% BSA. This DMEM/0.1% BSA was used as the control for all subsequent assays. The assays were performed in triplicate using a 48-well chemotaxis chamber with 8μ Nucleopore, type IV collagen-coated filters. The chambers were incubated at 37° C. for 4 hr, stained and placed onto glass slides with the original cell side up so that the cell pellet could be wiped from the surface. Cells that had migrated through the pores were trapped between glass and membrane and could be quantitated by laser densitometry.
Reversibility of cell motility which had been inhibited by compound 1 was determined by removing the compound from the incubation media. Thus, A2058 melanoma cells were cultured for 24 hr in standard media (DMEM/10% FCS), washed twice with saline, and cultured with DMEM/10% FCS with (+) or without (-) compound 1 for 24 hr. Cells were then washed and the treatments were reversed. The resulting cells are classified as "treated" (±, run as a control to test cell response following the incubation and washing steps), "washout" (±, run to evaluate reversibility), and "control". Control cells were washed and fed with standard media alone at each change point. Table E provides the results expressed as a percent of control cell motility at two concentrations of compound 1.

CHOm5 cells [5] = assay: Carbachol-stimulated 45Ca2+ influx; format: cell-based, Chinese hamster; design: % Inhibition of 45Ca2+ Influx into CHOm5 Cells: concentration or dose not given beside the values
Method: as §1, §2
Stimulated uptake of radiolabelled calcium was measured as described above. The abbreviations CTL and CC are control and carbachol-stimulated calcium influx values. respectively.

5R cells = assay: Clonogenic (crystal violet) proliferation assay; format: cell-based, rat; conditions: 0-10 μg/mL, 96 hr
Method: Proliferation: Two independent methods were used to determine the effect of various compounds on cellular proliferation. The first method utilized [^3 H]thymidine labelling and was performed using A2058, 5R, OVCAR3, and MDA-231 cells. Because the potential effect of compound 1 on thymidine metabolism was unknown, a clonogenic assay was also used. This assay utilized crystal violet nuclear staining.
For the clonogenic assay, aliquots of 50,000 cells per well (24 well plates) were grown under standard tissue culture conditions in the presence of increasing doses or test compound (0-10 μg/mL) or vehicle control. After 96 hr, the cells were gently washed with PBS, fixed, and stained with 0.5% crystal violet nuclear stain in 20% methanol. Excess stain was removed with tap water and bound stain was eluted with an equal volume solution of 01N sodium citrate (pH 4.2) and absolute ethanol. Optical density (O.D.) of eluted crystal violet stain was determined at 540 nm. The results of dose-dependent inhibition of tumor cell proliferation by compound 1 are shown in FIG. 5, in which the data are expressed as percent of untreated control cell proliferation for each cell type. The degree of inhibition varied with the cell type and was maximal (76%) for the A2058 cell line.

OVCAR3 cells = assay: Laminin-stimulated cell motility; format: cell-based, human; conditions: 1 μg/mL, 18 hr preincubation; laminin 100 μg/mL

SMILES: NC(=O)c1nnn(Cc2cc(Cl)c(C(=O)c3ccc(Cl)cc3)c(Cl)c2)c1N [Compound 1]
- COLONY FORMATION (% OF CONTROL) (A2058 cells [1]; Table H, soft agar): 11.1 ± 5 % OF CONTROL
- Colony Formation (% of Control) (A2058 cells [1]; Table K): 11.1 ± 5 % of Control
- inhibition of colony formation (A2058 cells [1]; concentrations as low as 0.2 μM): significant inhibitory effects
- IC50 (CHOm5 cells [2]; Cricetulus griseus, 0.25 h, carbachol 100 μM, 15 min): 5200 ± 800 nM
- Arachidonic Acid Release (% of Control) (CHOm5 cells [2]; Table K): 50.9 ± 9 % of Control
- IC50 (CHOm5 cells [3]): 359 ± 11 nM
- motility due to type IV collagen stimulation (A2058 cells [4]): inhibited motility
- activity at 1 µg/mL (A2058 melanoma cells; A2058, 1 μg/mL (+/-)): 97%
- activity at 1 µg/mL (A2058 melanoma cells; A2058, 1 μg/mL (-/+)): 59%
- activity at 5 µg/mL (A2058 melanoma cells; A2058, 5 μg/mL (+/-)): 94%
- activity at 5 µg/mL (A2058 melanoma cells; A2058, 5 μg/mL (-/+)): 27%
- reversibility of motility inhibition (A2058 melanoma cells; removal of the compound from the culture medium): could be reversed by removal of the compound from the culture medium
- IC50 (CHOm5 cells [5]; Cricetulus griseus, FIG. 12, carbachol): 935 ± 18 nM
- % Inhibition of 45Ca2+ Influx into CHOm5 Cells (CHOm5 cells [5]; Table I, carbachol-stimulated): 74%
- inhibition of tumor cell proliferation (5R cells): dose dependent inhibition of tumor cell proliferation
- inhibition of spontaneous and laminin-stimulated motility (OVCAR3 cells): inhibited both spontaneous motility

Source: patent US5482954A, “Signal transduction inhibitor triazole and diazole compounds” (priority 1994, dated 1996)
